According to patent US20020026053A1, “Novel 3-(substituted) -2- indolinones compounds and use thereof as inhibitors of protein kinase activity” (priority 1997, published 2002):

tested on: FLK-1 receptor; assay: FLK-1 Assay (cellular/catalytic ELISA, VEGF-stimulated phosphotyrosine); assay type: cell-based; design: concentration or dose not given beside the values; settings: protocol P.110
How it was run: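 Receptor phosphotyrosine ELISA: Flk-1-expressing NIH3T3 C7#3 cells, starved overnight in 0.1% FBS medium, received compound (1:200 final dilution, 0.5% DMSO) for 2 h at 37 °C, then VEGF. Anti-FLK-1-captured receptor was probed with anti-phosphotyrosine UB40 and peroxidase/ABTS read-out, relative to cells without compound.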

Row | SMILES | Flk Kinase % Inhibition (P.110) [%]
1 | O=C1Nc2ccc(S(=O)(=O)N3CCOCC3)cc2C1=Cc1ccc(Cl)c(Cl)c1 [10738/F08] | 16.8
2 | CNS(=O)(=O)c1ccc2c(c1)C(=Cc1ccccc1OC)C(=O)N2 [10738/D09] | 9.4
3 | Cc1ccc(Oc2cccc(C=C3C(=O)Nc4c(Br)cc(Br)cc43)c2)cc1 [10738/A02] | −14.2
4 | Cc1c(Br)ccc2c1C(=Cc1ccc(Cl)c(Cl)c1)C(=O)N2 [10738/C08] | −7.4
5 | O=C1Nc2ccc(S(=O)(=O)Nc3ccc(C(F)(F)F)cc3)cc2C1=Cc1cccc(Oc2ccc(Cl)c(Cl)c2)c1 [10738/E03] | 7.8
6 | O=C1Nc2ccc(I)cc2C1=Cc1ccc(Cl)c(Cl)c1 [10738/B08] | −0.7
7 | Cc1c(Br)ccc2c1C(=Cc1cc(O)ccc1[N+](=O)[O-])C(=O)N2 [10738/C05] | −4.4
8 | Cc1ccc(Oc2cccc(C=C3C(=O)Nc4ccc(I)cc43)c2)cc1 [10738/B02] | −8.5
9 | O=C1Nc2ccc(I)cc2C1=Cc1cccc(Oc2ccc(Cl)c(Cl)c2)c1 [10738/B03] | −1.2
10 | CC(C)c1ccc(C=C2C(=O)Nc3ccc(CCCl)cc32)cc1 [10738/G10] | −17.0
11 | O=C1Nc2ccc(CCCl)cc2C1=Cc1ccc(Cl)c(Cl)c1 [10738/G08] | −15.2
12 | O=C1Nc2ccc(CCCl)cc2C1=Cc1cccc(O)c1O [10738/G06] | −52.4
13 | CNS(=O)(=O)c1ccc2c(c1)C(=Cc1ccc(Cl)c(Cl)c1)C(=O)N2 [10738/D08] | 11.9
14 | O=C1Nc2ccc(S(=O)(=O)N3CCOCC3)cc2C1=Cc1cc(O)cc(O)c1 [10738/F07] | 6.4
15 | CCCOc1ccc(C=C2C(=O)Nc3c(Br)cc(Br)cc32)cc1 [10738/A11] | −7.5
16 | Cc1ccc(Oc2cccc(C=C3C(=O)Nc4ccc(S(=O)(=O)N5CCOCC5)cc43)c2)cc1 [10738/F02] | 15.0
17 | CC(C)c1ccc(C=C2C(=O)Nc3ccc(S(=O)(=O)Nc4ccc(C(F)(F)F)cc4)cc32)cc1 [10738/E10] | 5.1
18 | Cc1c(Br)cc(Br)c2c1C(=Cc1cccc(O)c1O)C(=O)N2 [10738/H06] | −44.8
19 | O=C1Nc2ccc(CCCl)cc2C1=Cc1cc(O)cc(O)c1 [10738/G07] | −19.3
20 | Cc1c(Br)ccc2c1C(=Cc1cc(O)cc(O)c1)C(=O)N2 [10738/C07] | −7.4
21 | COc1ccccc1C=C1C(=O)Nc2ccc(I)cc21 [10738/B09] | −6.2
22 | Cc1ccc(Oc2cccc(C=C3C(=O)Nc4ccc(Br)c(C)c43)c2)cc1 [10738/C02] | −0.1
23 | O=C1Nc2ccc(S(=O)(=O)Nc3ccc(C(F)(F)F)cc3)cc2C1=Cc1cc(O)cc(O)c1 [10738/E07] | 43.4
24 | Cc1c(Br)cc(Br)c2c1C(=Cc1cc(O)ccc1[N+](=O)[O-])C(=O)N2 [10738/H05] | −17.9

Row | SMILES | Flk Kinase % Inhibition (P.110) [%]
25 | CC(C)c1ccc(C=C2C(=O)Nc3ccc(S(=O)(=O)N4CCOCC4)cc32)cc1 [10738/F10] | 9.5
26 | Cc1c(Br)cc(Br)c2c1C(=Cc1cccc(Oc3ccc(Cl)c(Cl)c3)c1)C(=O)N2 [10738/H03] | −6.2
27 | CCCOc1ccc(C=C2C(=O)Nc3ccc(I)cc32)cc1 [10738/B11] | 8.8
28 | CCCOc1ccc(C=C2C(=O)Nc3ccc(S(=O)(=O)N4CCOCC4)cc32)cc1 [10738/F11] | 15.8
29 | O=C1Nc2ccc(S(=O)(=O)N3CCOCC3)cc2C1=Cc1cccc(Oc2ccc(Cl)c(Cl)c2)c1 [10738/F03] | 9.0
30 | O=C1Nc2c(Br)cc(Br)cc2C1=Cc1cc(O)ccc1[N+](=O)[O-] [10738/A05] | −24.5
31 | CCCOc1ccc(C=C2C(=O)Nc3ccc(CCCl)cc32)cc1 [10738/G11] | −8.1
32 | COc1ccc(C=C2C(=O)Nc3ccc(S(=O)(=O)N4CCOCC4)cc32)cc1O [10738/F04] | −32.3
33 | CNS(=O)(=O)c1ccc2c(c1)C(=Cc1ccc(OC)c(O)c1)C(=O)N2 [10738/D04] | −13.1
34 | Cc1c(Br)ccc2c1C(=Cc1ccc(C(C)C)cc1)C(=O)N2 [10738/C10] | −2.5
35 | CCCOc1ccc(C=C2C(=O)Nc3ccc(S(=O)(=O)NC)cc32)cc1 [10738/D11] | 10.4
36 | CC(C)c1ccc(C=C2C(=O)Nc3c(Br)cc(Br)cc32)cc1 [10738/A10] | −8.5
37 | CCCOc1ccc(C=C2C(=O)Nc3ccc(S(=O)(=O)Nc4ccc(C(F)(F)F)cc4)cc32)cc1 [10738/E11] | 10.2
38 | CNS(=O)(=O)c1ccc2c(c1)C(=Cc1ccc(C(C)C)cc1)C(=O)N2 [10738/D10] | 15.4
39 | O=C1Nc2ccc(S(=O)(=O)Nc3ccc(C(F)(F)F)cc3)cc2C1=Cc1cccc(O)c1O [10738/E06] | 10.1
40 | CCCOc1ccc(C=C2C(=O)Nc3ccc(Br)c(C)c32)cc1 [10738/C11] | 8.4
41 | COc1ccccc1C=C1C(=O)Nc2ccc(S(=O)(=O)Nc3ccc(C(F)(F)F)cc3)cc21 [10738/E09] | 21.2
42 | Cc1c(Br)ccc2c1C(=Cc1cccc(Oc3ccc(Cl)c(Cl)c3)c1)C(=O)N2 [10738/C03] | 28.0
43 | COc1ccc(C=C2C(=O)Nc3c(Br)cc(Br)cc32)cc1O [10738/A04] | −16.2
44 | COc1ccc(C=C2C(=O)Nc3ccc(I)cc32)cc1O [10738/B04] | 55.0
45 | CNS(=O)(=O)c1ccc2c(c1)C(=Cc1cccc(Oc3ccc(C)cc3)c1)C(=O)N2 [10738/D02] | 2.8
46 | O=C1Nc2c(Br)cc(Br)cc2C1=Cc1cc(O)cc(O)c1 [10738/A07] | −22.1
47 | COc1ccc(C=C2C(=O)Nc3ccc(S(=O)(=O)Nc4ccc(C(F)(F)F)cc4)cc32)cc1O [10738/E04] | −11.5
48 | COc1ccc(C=C2C(=O)Nc3ccc(Br)c(C)c32)cc1O [10738/C04] | 84.2

Row | SMILES | Flk Kinase % Inhibition (P.110) [%]
49 | COc1ccccc1C=C1C(=O)Nc2ccc(CCCl)cc21 [10738/G09] | 4.1
50 | O=C1Nc2ccc(S(=O)(=O)Nc3ccc(C(F)(F)F)cc3)cc2C1=Cc1cc(O)ccc1[N+](=O)[O-] [10738/E05] | −4.8
51 | O=C1Nc2ccc(CCCl)cc2C1=Cc1cc(O)ccc1[N+](=O)[O-] [10738/G05] | 4.0
52 | CC(C)c1ccc(C=C2C(=O)Nc3ccc(I)cc32)cc1 [10738/B10] | 14.3
53 | O=C1Nc2ccc(CCCl)cc2C1=Cc1cccc(Oc2ccc(Cl)c(Cl)c2)c1 [10738/G03] | −4.1
54 | O=C1Nc2ccc(I)cc2C1=Cc1cc(O)ccc1[N+](=O)[O-] [10738/B05] | −13.1
55 | O=C1Nc2ccc(S(=O)(=O)N3CCOCC3)cc2C1=Cc1cccc(O)c1O [10738/F06] | −12.6
56 | O=C1Nc2ccc(S(=O)(=O)N3CCOCC3)cc2C1=Cc1cc(O)ccc1[N+](=O)[O-] [10738/F05] | 3.3
57 | CNS(=O)(=O)c1ccc2c(c1)C(=Cc1cc(O)ccc1[N+](=O)[O-])C(=O)N2 [10738/D05] | −12.5
58 | Cc1ccc(Oc2cccc(C=C3C(=O)Nc4ccc(CCCl)cc43)c2)cc1 [10738/G02] | −10.5
59 | O=C1Nc2ccc(S(=O)(=O)Nc3ccc(C(F)(F)F)cc3)cc2C1=Cc1ccc(Cl)c(Cl)c1 [10738/E08] | 12.8
60 | O=C1Nc2c(Br)cc(Br)cc2C1=Cc1cccc(Oc2ccc(Cl)c(Cl)c2)c1 [10738/A03] | 12.8
61 | O=C1Nc2c(Br)cc(Br)cc2C1=Cc1cccc(O)c1O [10738/A06] | 77.3
62 | O=C1Nc2ccc(I)cc2C1=Cc1cccc(O)c1O [10738/B06] | −44.1
63 | CNS(=O)(=O)c1ccc2c(c1)C(=Cc1cccc(Oc3ccc(Cl)c(Cl)c3)c1)C(=O)N2 [10738/D03] | 13.6
64 | COc1ccccc1C=C1C(=O)Nc2c(Br)cc(Br)cc21 [10738/A09] | −9.8
65 | COc1ccc(C=C2C(=O)Nc3c(Br)cc(Br)c(C)c32)cc1O [10738/H04] | −17.9
66 | Cc1c(Br)ccc2c1C(=Cc1cccc(O)c1O)C(=O)N2 [10738/C06] | −68.1
67 | COc1ccccc1C=C1C(=O)Nc2ccc(S(=O)(=O)N3CCOCC3)cc21 [10738/F09] | 1.7
68 | O=C1Nc2c(Br)cc(Br)cc2C1=Cc1ccc(Cl)c(Cl)c1 [10738/A08] | −9.3
69 | Cc1ccc(Oc2cccc(C=C3C(=O)Nc4ccc(S(=O)(=O)Nc5ccc(C(F)(F)F)cc5)cc43)c2)cc1 [10738/E02] | 3.6
70 | CNS(=O)(=O)c1ccc2c(c1)C(=Cc1cc(O)cc(O)c1)C(=O)N2 [10738/D07] | 10.3
